Laboratory results published in US20100048676A1, “Non-androgen dependent roles for androgen receptor in liver cancer” (University of Rochester, priority 2008, published 2010).
Read-outs that look alike come from different tables or passages of the source.

How the values were obtained:
AR [1] = details: MCF-7 cells, retrovirus-based vector; cited from earlier work
AR transactivation = assay: ARE(4)-luciferase promoter assay of AR transactivation in SKAR3 sublines; type: cell-based, human; details: 1 nM DHT
Description: (§1) FIG. 6. Targeting AR as therapeutic strategy. (A) Establishment of AR siRNA stable transfectants of human SKAR3 cells. Scrambled siRNA (SKAR3-sc, lane 3) and different siRNA targeting AR (SKAR3-si1; SKAR3-si2; SKAR3-si3) stable transfectants derived from SKAR3 cells. LNCaP and SK-Hep1 cells served as positive and negative controls of AR expression, respectively. (B) AR transactivation activity was used to examine the knockdown efficiency of AR siRNA in the SKAR3 cells. The SKAR3-si1 cells were used to compare with SKAR3-sc cells and treated with EtOH and 1 nM DHT for 24 hrs after ARE(4)-luciferase transfection. The readings were normalized with the read out of pRL-TK cotransfection and pooled three individual experiments. (C) AR siRNA effect on SKAR3 cell growth. SKAR3-sc and SKAR3-si1 cells were treated with EtOH or 1 nM DHT, then observed cell growth by counting cells on different days. (D) ASC-J9 effect on SKAR3 and SKAR7 cells. Cells were plated and cultured with EtOH, 10 nM DHT and 5 μM ASC-J9 for different days and examined cell growth using MTT assay. (E) ASC-J9 effect on SKAR3 cell apoptosis and proliferation. Cells were cultured with 10 nM DHT, or 5 μM ASC-J9 for 24 hrs, then detached, stained with PI, assayed immediately by flowcytometry to observe cell apoptosis. […] Six injection sites from 3 mice were measured and pooled. […]

AR [2] = assay: AR expression in SKAR3 cells stably transfected with AR-siRNA; type: cell-based, human; details: SKAR3-si1, 2 or 3 vs SKAR3-sc
Description: as §1

SKAR3 cells [3] = assay: AR siRNA effect on SKAR3 cell growth (SKAR3-sc vs SKAR3-si1); type: cell-based, human; details: 1 nM DHT
Description: as §1

SKAR3 cells [4] = assay: SKAR3 cell apoptosis, PI staining and flowcytometry; type: cell-based, human; details: 5 μM ASC-J9, 24 hrs, absence or presence of 10 nM DHT
Description: as §1

[5] = injection of ASC-J9 for 15 weeks, mice; cited from earlier work
[6] = system: primary tumor cells isolated from AR+/y mice livers; assay: Growth of primary cells from DEN-induced AR+/y liver tumors (MTT assay); type: cell-based, mouse
Experimental: (E) Cell growth analysis using MTT assay on the cells derived from AR^+/y primary liver tumor culture in 55-weeks DEN-induced AR^+/y mice. Cells within 3 passages of subculture were used, treated with ethanol (EtOH) or DHT at different concentrations (1 and 10 nM). Cell growth was monitored for a maximum of 8 days and harvested for MTT assay. Values from background readings at 650 nm were subtracted and pooled all MTT assay results from 5 independent experiments.
(F) Primary cells were derived from 55-weeks DEN-induced AR^+/y liver tumors and cultured ex vivo. Cells were treated with ASC-J9 or cotreated with 10 nM DHT for 8 days, then harvested for MTT assay. The result represents three independent experiments.
The hepatic cells were isolated from 55-weeks-old DEN-treated mice and performed primary hepatic cell culture as described previously(30). […] The cells were maintained in DMEM (Invitrogen) with 10% Fetal Calf Serum (FCS), 1% Glutamine; and 1% penicillin/streptomycin. The cell growth assays were performed according to a previous study(32) using cell counting assay or MTT (3-(4,5-Dimethylthiazol-2-yl)-2,5-diphenyltetrazolium bromide) assay(33).

SKAR3 cells [7] = assay: ASC-J9 effect on SKAR3 cell growth (MTT assay); type: cell-based, human; details: 5 μM ASC-J9, in the presence of 10 nM DHT
Description: as §1

[8] = system: primary liver tumor of AR+/y mice; assay: Primary liver tumor cells inoculated subcutaneously into nude mice, tumor growth; type: in vivo, mouse; details: I.P. 50 mg/kg/mice twice per week, 17 weeks
Description: as §1

SKAR7 cells = assay: ASC-J9 effect on SKAR7 cell growth (MTT assay); type: cell-based, human; details: 5 μM ASC-J9, in the presence of 10 nM DHT
Description: as §1

[9] = system: superoxide dismutase 2 (SOD2); details: 10 nM DHT
Experimental: (§2) FIG. 10. Examination of ROS reducing gene mRNA expression using SKpar and SKAR cells, (A, B) We plated cells and treated as indicated for 24 hrs. We examined Thioreducin-2 (A) and SOD2 (B) mRNA using Q-PCR as described in Methods.
(§3) The mRNA expression of MnSOD (SOD2), Thioreducin-2, and Gadd45 was determined using quantitative RT-PCR (Q-PCR) as previous described(37), and primer sequences are as follows.

thioreducin-2 = details: 10 nM DHT
Experimental: as §2, §3

p53 = details: 10 nM DHT for 2, 4, and 8 hrs, time-dependent
Experimental: (A) p53 protein expression of SKpar and SKAR3 cells. We treated SKpar and SKAR3 cells with 10 nM DHT for 2, 4, and 8 hrs and measured protein abundance by immunoblotting assay using p53 specific antibody. GAPDH served as loading control.
The p53 expression was analyzed using immunoblotting assay(32) to semi-quantitate p53 protein abundance in the hepatic tumor and HCC cells. […] Protein abundance was measured by Western blotting as previously described(38) using specific antibodies against AR (Pharmingen), p53 (Cell Signaling), Gadd45, . . . , and Bcl-2 (Santa Cruz).

SKAR3 cells [10] = details: SKAR3-EtOH vs SKAR3-DHT, 10 nM DHT, 4 days
Experimental: (§4) FIG. 3. […] (A) Apoptotic cells in SKpar and SKAR3 cells. […] (B) Androgen and AR effect on anchorage-dependent cell growth. […] (C) Anchorage-independent cell growth of SKpar and SKAR3 cells. Cell clusters greater than 50 cells were counted as a positive clone.
(§5) The hepatic cells were isolated from 55-weeks-old DEN-treated mice and performed primary hepatic cell culture as described previously(30). The cells were plated onto 100-mm BioCoat mouse collagen I coated dishes (BD Biosciences) at a density of 5×10^5 viable cells/dish in low glucose Dulbecco's modified Eagle's medium (Invitrogen) containing 1% bovine serum albumin, 0.8 mM oleate, […] insulin (4 milliunits/ml), […] dexamethasone, 100 units of penicillin, and 1% of streptomycin/ml. Human HCC cells were obtained from Dr. Y. S. Jou in Acdemia Secienica, Taiwan published previously(31). The cells were maintained in DMEM (Invitrogen) with 10% Fetal Calf Serum (FCS), 1% Glutamine; and 1% penicillin/streptomycin.

SKpar cells = details: SKpar-EtOH vs SKpar-DHT, 10 nM DHT, 4 days
Experimental: as §4, §5

SKAR3 cells [11] = details: 10 nM DHT
Description: as §4

SKAR3 cells [12] = details: 1 nM DHT with H2O2 treatment, 24 hrs
Experimental: (B) SKpar and SKAR3 cells were treated with 200 μM H2O2 or 1 nM DHT for 24 hrs and measured ROS level.

Question: For “AR-siRNA: retrovirus-based vector that expresses AR-siRNA; stable SKAR3 sublines SKAR3-si1, 2 or 3 (guide GGGCCCCTGGATGGATAGCTACCTCGAGGTAGCTATCCATCCAGGGGCC)”, which AR knockdown (AR [1]) is on record?
Answer: The AR knockdown was “effectively knocked down the AR”.

Question: And the “AR-mediated transactivation under AR-siRNA” value (AR transactivation; SKAR3-si1 vs SKAR3-sc, 24 hrs)?
Answer: The value was “could induce substantial AR transactivation in SKAR3-sc, but not SKAR3-si1 cells”.

Question: What about the AR expression (AR [2]) of the same compound?
Answer: The AR expression was “substantially knocked down”.

Question: And the DHT-induced cell growth (SKAR3 cells [3])?
Answer: Its DHT-induced cell growth is “suppression of DHT-induced cell growth”.

Question: Which results are given for COc1ccc(C=CC(=O)C=C(O)C=Cc2ccc(OC)c(OC)c2)cc1OC [ASC-J9, 5-hydroxy-1,7-bis(3,4-dimethoxyphenyl)-1,4,6-heptatrien-3-one]?
Answer: cell apoptosis (SKAR3 cells [4]): increased cell apoptosis; serum testosterone [5]: little change in serum testosterone; sexual function and fertility [5]: retained normal sexual function and fertility; primary tumor cell growth ([6]; 5 μM ASC-J9, absence or presence of 10 nM DHT, 8 days): suppressed the primary tumor cell growth; cell growth (SKAR3 cells [7]): suppression of cell growth; tumor growth [8]: suppression of tumor growth; cell growth (SKAR7 cells): suppression of cell growth

Question: For C[C@]12CCC(=O)C[C@@H]1CC[C@@H]1[C@@H]2CC[C@]2(C)[C@@H](O)CC[C@@H]12 [DHT, 5α-dihydrotestosterone], which “AR transactivation induced by DHT” value (AR transactivation; SKAR3-sc cells) is on record?
Answer: Its value is “could induce substantial AR transactivation”.

Question: And the “SOD2 mRNA expression” value ([9]; SKAR3 cells treated with H2O2)?
Answer: Its value is “decreased”.

Question: And the “H2O2-induced SOD2 mRNA expression” value ([9]; SKpar cells)?
Answer: The value was “failed to suppress”.

Question: And the “thioreducin-2 mRNA expression” value (thioreducin-2; SKAR3 cells treated with H2O2)?
Answer: The value was “decreased”.

Question: And the “H2O2-induced thioreducin-2 mRNA expression” value (thioreducin-2; SKpar cells)?
Answer: Its value is “failed to suppress”.

Question: What about the p53 protein expression (p53) of the same compound?
Answer: Its p53 protein expression is “down-regulation of p53”.

Question: What about the cell growth (SKAR3 cells [10]) of the same compound?
Answer: Its cell growth is “further increased cell growth”.

Question: And the cell growth (SKpar cells)?
Answer: Its cell growth is “little effect”.

Question: And the “AR-promoted anchorage-independent cell growth” value (SKAR3 cells [11])?
Answer: The value was “little influence”.

Question: What about the “cell growth (cell numbers)” value ([6]; DHT 1 and 10 nM, maximum of 8 days) of the same compound?
Answer: The value was “cell numbers increased in a dose-dependent manner”.

Question: What about the ROS level (SKAR3 cells [12]) of the same compound?
Answer: Its ROS level is “further enhanced”.
